From patent US20220135591A1, “HETEROCYCLIC COMPOUNDS AS INHIBITORS OF MONOACYLGLYCEROL LIPASE (MAGL)” (Hoffmann-La Roche Inc., priority 2019, published 2022)

What follows are molecules tested against T1, MAGL (Homo sapiens, UniProt Q99685) (assay: 2-AG assay: MAGL inhibitory activity by hydrolysis of 2-arachidonoylglycerol to arachidonic acid, mass spectrometry). Conditions: 2-AG assay (values marked [b]).
T1 sequence (Q99685 1-303): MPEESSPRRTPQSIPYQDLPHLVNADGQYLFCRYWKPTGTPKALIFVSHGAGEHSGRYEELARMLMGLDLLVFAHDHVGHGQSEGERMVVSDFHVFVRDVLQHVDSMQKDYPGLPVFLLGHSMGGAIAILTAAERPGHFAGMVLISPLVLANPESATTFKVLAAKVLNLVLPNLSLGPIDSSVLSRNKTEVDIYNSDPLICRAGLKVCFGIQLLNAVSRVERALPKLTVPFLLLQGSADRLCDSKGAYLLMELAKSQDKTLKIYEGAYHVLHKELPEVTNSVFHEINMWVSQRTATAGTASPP
Assay type: biochemical
How it was run: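 Human MAGL […] was preincubated 15 min at RT with compound ([…], 3-fold steps) in 50 mM Tris, 1 mM EDTA, 0.01% Tween. 2-AG (8 μM) was then added for 30 min at RT. Arachidonic acid was quantified by RapidFire SPE–triple quadrupole MS in negative ESI as its ratio to a d8-arachidonic acid standard.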

Structure (SMILES) | IC50 [nM]
CC(C)(C)c1nnc(-c2ncc(C(=O)N3CCN(c4nc5nc(Cl)ccc5o4)CC3)cc2F)o1 [Example 278, [6-(5-tert-butyl-1,3,4-oxadiazol-2-yl)-5-fluoro-3-pyridyl]-[4-(5-chlorooxazolo[4,5-b]pyridin-2-yl)piperazin-1-yl]methanone] | 801
CC(C)(CF)c1nnc(-c2ccc(C(=O)N3CCN(c4nc5nc(Cl)ccc5o4)CC3)cc2F)o1 [Example 280, [4-(5-chlorooxazolo[4,5-b]pyridin-2-yl)piperazin-1-yl]-[3-fluoro-4-[5-(2-fluoro-1,1-dimethyl-ethyl)-1,3,4-oxadiazol-2-yl]phenyl]methanone] | 119
CC(C)(C)c1nc(-c2ccc(C(=O)N3CC4CCC(C3)N4c3nc4nc(Cl)ccc4o3)cc2)no1 [Example 284, [4-(5-tert-butyl-1,2,4-oxadiazol-3-yl)phenyl]-[8-(5-chlorooxazolo[4,5-b]pyridin-2-yl)-3,8-diazabicyclo[3.2.1]octan-3-yl]methanone] | 350
CC(C)(C)Cn1cc(-c2ccc(C(=O)N3CCN(c4nc5nc(Cl)ccc5o4)C(CO)C3)cc2)nn1 (centres unmarked) [Example 285, [4-(5-chlorooxazolo[4,5-b]pyridin-2-yl)-3-(hydroxymethyl)piperazin-1-yl]-[4-[1-(2,2-dimethylpropyl)triazol-4-yl]phenyl]methanone] | 2050
Cc1cc(C(=O)N2CCN(c3nc4nc(Cl)ccc4o3)CC2)ccc1-n1cnc(C(C)(C)C)n1 [Example 287, [4-(3-tert-butyl-1,2,4-triazol-1-yl)-3-methyl-phenyl]-[4-(5-chlorooxazolo[4,5-b]pyridin-2-yl)piperazin-1-yl]methanone] | 114
Cc1ccc2oc(N3CCN(C(=O)c4ccc(-n5cnc(C(C)(C)C)n5)c(C)c4)CC3)nc2n1 [Example 288, [4-(3-tert-butyl-1,2,4-triazol-1-yl)-3-methyl-phenyl]-[4-(5-methyloxazolo[4,5-b]pyridin-2-yl)piperazin-1-yl]methanone] | 175
Cc1ccc2oc(N3CCN(C(=O)c4ccc(-n5cnc(C(C)(C)C)n5)c(Cl)c4)CC3)nc2n1 [Example 291, [4-(3-tert-butyl-1,2,4-triazol-1-yl)-3-chloro-phenyl]-[4-(5-methyloxazolo[4,5-b]pyridin-2-yl)piperazin-1-yl]methanone] | 172
CC1CN(c2nc3nc(Cl)ccc3o2)CCN1C(=O)c1ccc(-c2cn(CC(C)(C)C)nn2)cc1 (centres unmarked) [Example 295, [4-(5-chlorooxazolo[4,5-b]pyridin-2-yl)-2-methyl-piperazin-1-yl]-[4-[1-(2,2-dimethylpropyl)triazol-4-yl]phenyl]methanone] | 243
Cc1ccc2oc(N3CCN(C(=O)c4ccc(OCC5(C(F)(F)F)CC5)nc4Cl)CC3)nc2n1 [Example 296, [2-chloro-6-[[1-(trifluoromethyl)cyclopropyl]methoxy]-3-pyridyl]-[4-(5-methyloxazolo[4,5-b]pyridin-2-yl)piperazin-1-yl]methanone] | 2620
CC(C)(C)c1nc(-c2ccc(C(=O)N3C4CCC3CN(c3nc5nc(Cl)ccc5o3)C4)cc2)no1 [Example 297, [4-(5-tert-butyl-1,2,4-oxadiazol-3-yl)phenyl]-[3-(5-chlorooxazolo[4,5-b]pyridin-2-yl)-3,8-diazabicyclo[3.2.1]octan-8-yl]methanone] | 100
CC(C)(C)Cn1nnc(-c2ncc(C(=O)N3CCN(c4nc5nc(Cl)ccc5o4)CC3)cc2F)n1 [Example 306, [4-(5-chlorooxazolo[4,5-b]pyridin-2-yl)piperazin-1-yl]-[6-[2-(2,2-dimethylpropyl)tetrazol-5-yl]-5-fluoro-3-pyridyl]methanone] | 363
Cc1ccc2oc(N3CCN(C(=O)c4cnc(-c5nnn(CC(C)(C)C)n5)c(F)c4)CC3)nc2n1 [Example 307, [6-[2-(2,2-dimethylpropyl)tetrazol-5-yl]-5-fluoro-3-pyridyl]-[4-(5-methyloxazolo[4,5-b]pyridin-2-yl)piperazin-1-yl]methanone] | 1130
Cc1cc(C(=O)N2CCN(c3nc4nc(Cl)ccc4o3)CC2)cnc1-c1nnn(CC(C)(C)C)n1 [Example 308, [4-(5-chlorooxazolo[4,5-b]pyridin-2-yl)piperazin-1-yl]-[6-[2-(2,2-dimethylpropyl)tetrazol-5-yl]-5-methyl-3-pyridyl]methanone] | 111

The next molecules have a lower IC50 than those just listed; values first:

IC50 [nM] | Structure (SMILES)
9 | Cc1ccc2oc(N3CCN(C(=O)c4ccc(-c5nnn(CC(C)(C)C)n5)cc4)CC3)nc2n1 [Example 277, (4-(5-methyloxazolo[4,5-b]pyridin-2-yl)piperazin-1-yl)(4-(2-neopentyl-2H-tetrazol-5-yl)phenyl)methanone]
11 | CC(C)(C)Cn1cc(-c2ncc(C(=O)N3CCN(c4nc5nc(Cl)ccc5o4)CC3)cc2C(F)(F)F)cn1 [Example 279, [4-(5-chlorooxazolo[4,5-b]pyridin-2-yl)piperazin-1-yl]-[6-[1-(2,2-dimethylpropyl)pyrazol-4-yl]-5-(trifluoromethyl)-3-pyridyl]methanone]
36 | CC(C)(C)c1nnc(-c2ccc(C(=O)N3CCN(c4nc5nc(Cl)ccc5o4)CC3)cc2F)o1 [Example 281, [4-(5-tert-butyl-1,3,4-oxadiazol-2-yl)-3-fluoro-phenyl]-[4-(5-chlorooxazolo[4,5-b]pyridin-2-yl)piperazin-1-yl]methanone]
11 | Cc1ccc2oc(N3CCN(C(=O)c4cnc(-c5cnn(CC(C)(C)C)c5)c(C(F)(F)F)c4)CC3)nc2n1 [Example 282, [6-[1-(2,2-dimethylpropyl)pyrazol-4-yl]-5-(trifluoromethyl)-3-pyridyl]-[4-(5-methyloxazolo[4,5-b]pyridin-2-yl)piperazin-1-yl]methanone]
3 | CC(C)(C)Cn1nnc(-c2ccc(C(=O)N3CCN(c4nc5nc(Cl)ccc5o4)CC3)cc2)n1 [Example 283, (4-(5-chlorooxazolo[4,5-b]pyridin-2-yl)piperazin-1-yl)(4-(2-neopentyl-2H-tetrazol-5-yl)phenyl)methanone]
45 | CC(C)(C)Cn1cc(-c2ccc(C(=O)N3CCN(c4nc5nc(F)ccc5o4)CC3)cc2)nn1 [Example 286, [4-[1-(2,2-dimethylpropyl)triazol-4-yl]phenyl]-[4-(5-fluorooxazolo[4,5-b]pyridin-2-yl)piperazin-1-yl]methanone]
75 | CC(C)(C)c1ncn(-c2ccc(C(=O)N3CCN(c4nc5nc(Cl)ccc5o4)CC3)cc2Cl)n1 [Example 292, [4-(3-tert-butyl-1,2,4-triazol-1-yl)-3-chloro-phenyl]-[4-(5-chlorooxazolo[4,5-b]pyridin-2-yl)piperazin-1-yl]methanone]
20 | CC(C)(C)Cn1cnc(-c2ccc(C(=O)N3CCN(c4nc5nc(Cl)ccc5o4)CC3)cc2F)n1 [Example 293, [4-(5-chlorooxazolo[4,5-b]pyridin-2-yl)piperazin-1-yl]-[4-[1-(2,2-dimethylpropyl)-1,2,4-triazol-3-yl]-3-fluoro-phenyl]methanone]
34 | Cc1ccc2oc(N3CCN(C(=O)c4ccc(-c5ncn(CC(C)(C)C)n5)c(F)c4)CC3)nc2n1 [Example 294, [4-[1-(2,2-dimethylpropyl)-1,2,4-triazol-3-yl]-3-fluoro-phenyl]-[4-(5-methyloxazolo[4,5-b]pyridin-2-yl)piperazin-1-yl]methanone]
95 | CC(C)(F)Cc1nnc(-c2ccc(C(=O)N3CCN(c4nc5nc(Cl)ccc5o4)CC3)cc2F)o1 [Example 298, [4-(5-chlorooxazolo[4,5-b]pyridin-2-yl)piperazin-1-yl]-[3-fluoro-4-[5-(2-fluoro-2-methyl-propyl)-1,3,4-oxadiazol-2-yl]phenyl]methanone]
31 | Cc1ccc2oc(N3CCN(C(=O)c4cc(F)c(-c5nnn(CC(C)(C)C)n5)c(F)c4)CC3)nc2n1 [Example 299, [4-[2-(2,2-dimethylpropyl)tetrazol-5-yl]-3,5-difluoro-phenyl]-[4-(5-methyloxazolo[4,5-b]pyridin-2-yl)piperazin-1-yl]methanone]
10 | CC(C)(C)Cn1nnc(-c2c(F)cc(C(=O)N3CCN(c4nc5nc(Cl)ccc5o4)CC3)cc2F)n1 [Example 300, [4-(5-chlorooxazolo[4,5-b]pyridin-2-yl)piperazin-1-yl]-[4-[2-(2,2-dimethylpropyl)tetrazol-5-yl]-3,5-difluoro-phenyl]methanone]
3 | Cc1ccc2oc(N3CCN(C(=O)c4ccc(-c5nnn(CC(C)(C)C)n5)c(C)c4)CC3)nc2n1 [Example 301, [4-[2-(2,2-dimethylpropyl)tetrazol-5-yl]-3-methyl-phenyl]-[4-(5-methyloxazolo[4,5-b]pyridin-2-yl)piperazin-1-yl]methanone]
2 | Cc1cc(C(=O)N2CCN(c3nc4nc(Cl)ccc4o3)CC2)ccc1-c1nnn(CC(C)(C)C)n1 [Example 302, [4-(5-chlorooxazolo[4,5-b]pyridin-2-yl)piperazin-1-yl]-[4-[2-(2,2-dimethylpropyl)tetrazol-5-yl]-3-methyl-phenyl]methanone]
7 | Cc1ccc2oc(N3CCN(C(=O)c4ccc(-c5nnn(CC(C)(C)C)n5)c(F)c4)CC3)nc2n1 [Example 303, [4-[2-(2,2-dimethylpropyl)tetrazol-5-yl]-3-fluoro-phenyl]-[4-(5-methyloxazolo[4,5-b]pyridin-2-yl)piperazin-1-yl]methanone]
4 | CC(C)(C)Cn1nnc(-c2ccc(C(=O)N3CCN(c4nc5nc(Cl)ccc5o4)CC3)cc2F)n1 [Example 304, [4-(5-chlorooxazolo[4,5-b]pyridin-2-yl)piperazin-1-yl]-[4-[2-(2,2-dimethylpropyl)tetrazol-5-yl]-3-fluoro-phenyl]methanone]
